# Results as given in patent EP4548971A1, “1,4-BENZOTHIAZEPINES AND RELATED COMPOUNDS WITH CYCLOPROPANOL GROUPS AS MULTI-TARGETED DRUGS” (Georg-August-Universität Göttingen Stiftung Öffentlichen …, priority 2023, dated 2025).
# Assays:
# [1] = target: T1, WT RyR2 (Mus musculus, UniProt E9Q401); test: Time-lapse [Ca2+]ER assay (RyR2 R-CEPIA1er assay) in HEK-293 cells; assay type: cell-based; conditions: for RyR2 effect class: 25 µM in RyR2 R-CEPIA1er assay; for effect on [Ca^2+]ER (R-CEPIA1er fluorescence), in words: 25 µM, vs. 0.1 v/v% DMSO; for EC50: HEK-293 WT RyR2 R-CEPIA1er cells, range after the semicolon is not explained
# T1 construct: expressed in transfected cells
# Method: HEK-293 cells stably expressing R-CEPIA1er and WT RyR2 (generous gift from Takashi Murayama, Juntendo University School of Medicine, Tokyo) were cultured in Dulbecco's Modified Eagle medium (DMEM, Thermo Fisher Scientific, Darmstadt, Germany) supplemented with 10% fetal bovine serum (FBS, Thermo Fisher Scientific, Darmstadt, Germany), 0.9% Penicillin/Streptomycin (Merck KGaA, Darmstadt, Germany), 15ug/mL Blasticidine (Invivogen, Toulouse, France), 100 µg/mL Hygromycin (Merck KGaA, Darmstadt, Germany) and 400 µg/mL G418 (Thermo Fisher Scientific, Darmstadt, Germany) in a humidified 5% COz incubator at 37 °C. To induce the expression of WT RyR2 in the endoplasmic reticulum (ER), 2 µg/mL Doxycycline (Merck KGaA, Darmstadt, Germany) was added 24 h before experiments.
# The fluorescent plate reader [Ca^2+]ER assay was performed according to the slightly modified protocol of Murayama & Kurebayashi [T. Murayama, N. Kurebayashi, Assays for Modulators of Ryanodine Receptor (RyR)/Ca(2+) Release Channel Activity for Drug Discovery for Skeletal Muscle and Heart Diseases. Curr. Protoc. […] After the cells were inducted with Doxycycline for 24 h, changes in ER calcium concentrations [Ca^2+]ER were measured on a multiwell plate reader TECAN Spark 20M at 37 °C. The 1000 × stock solutions of the test compounds were prepared in DMSO. Briefly, the culture medium was removed and 100 µl of Tyrode's solution containing 2 mM CaCl2 was added to the cells. The time courses were recorded in each well. Fluorescence was evoked by 560 nm excitation wavelength and collected in a bottom-read mode at 610 nm. Data was recorded every 10 s, exposure - 20 flashes, excitation bandwidth - 20 nm, emission bandwidth - 20 nm. 100 µl of 0 - 100 µM solution of test compound in Tyrode's solution containing 2 mM CaCh was injected in each well (speed 100 µl/s) at the 90 s time point. […] The 0.1 v/v% DMSO and 2 mM CaCh Tyrode's solution was used as a control.
# The dose response curves were calculated using the software package GraphPad Prism version 8.3.1. (GraphPad Software, Inc.). All data are presented as mean ± S.D. in 3 independent experiments. Y=Bottom + (Top-Bottom)/(1+10^((LogEC50-X)*HillSlope)) was used where HillSlope describes the steepness of the curve, Top and Bottom are plateaus in the units of the Y axis.
# The inventors measured changes in Ca^2+ levels in the endoplasmic reticulum (ER) of HEK-293 cells with inducible expression of wild-type RyR2 (WT RyR2) [T. Murayama, N. Kurebayashi, M. Ishigami-Yuasa, S. Mori, Y. Suzuki, R. Akima, H. Ogawa, J. Suzuki, K. Kanemaru, H. Oyamada, Y. Kiuchi, M. Iino, H. Kagechika, T. Sakurai, Efficient High-Throughput Screening by Endoplasmic Reticulum Ca(2+) Measurement to Identify Inhibitors of Ryanodine Receptor Ca(2+)-Release Channels. […] The cells additionally stably express the Ca^2+ fluorescence indicator R-CEPIA1er, which is a genetically encoded sensor protein of Ca^2+ in the ER ([Ca^2+]ER) [T. Murayama, N. Kurebayashi, Assays for Modulators of Ryanodine Receptor (RyR)/Ca(2+) Release Channel Activity for Drug Discovery for Skeletal Muscle and Heart Diseases. Curr. Protoc.
# The fluorescence ratio F/F0 was calculated, where F0 - is the average fluorescence for the first 90 s, F - is the average fluorescence for the last 100 s, and normalized.
# [2] = Membrane permeability, PermeaPad plate (cell-free transport model); assay type: in vitro ADME; conditions: for Pe: permeability rate, room temperature, 24 hours
# Method: Membrane permeability was assessed using PermeaPad® Plate according to the manufacturing procedure (innoME GmbH, Espelkamp, Germany). Briefly, 200 µl water was added into acceptor plate. 200 µl of 100 - 500 µM test compound in water was added directly to the well membranes of the donor plate. The donor plate contains a biomimetic membrane for simulating passive mass transfer through different barriers in the body. Then the donor plate was placed into the acceptor plate wells and incubated at room temperature for 24 hours in dark. To determine peak absorbance of test compounds, absorbance spectra of acceptor solutions and initial solutions for each test compound were read out. The Permeability Rate (Pe) was calculated using the formula: Pe = C × −ln(1−(ODA)/(ODE)) cm/s, [formula]
# where ODA is the absorbance of acceptor solution, ODE is the absorbance of the standard solution; if the compound is able to permeabilize the membrane and fully reach equilibrium, 250 µM will be the final concentration of solution in the donor and acceptor wells. The coefficient C was calculated using the formula: C = (VD × VA)/((VD+VA) × Area × time), [formula] where VA - acceptor volume (cm^3), VD - donor volume (cm^3), membrane area 0.24 cm^2, time is 86,400 s.
# (§1) The membrane permeability of the derivatives was determined using cell-free transport models (PermeaPad®, innoME GmbH), and permeability rates (Pe), which are a measure of how fast a compound can cross a membrane, were established (Table 1).
# [3] = tested on: HL-1 cardiac cells; test: CytoTox-Glo cytotoxicity assay (cell viability); assay type: cell-based; conditions: CytoTox-Glo assay in 100 µM solutions after 24 h incubation
# Method: Cell viability was assessed using CytoTox-Glo™ Cytotoxicity Assay according to the manufacturing procedure (Promega GmbH). Briefly, HL-1 cardiac cells were cultivated for 24 h in black-walled, clear-bottom 96-well micro-plates (Corning) covered with fibronectin in DMEM, containing different concentrations of the tested compound (10,000 cells/well). Luminescence of a luminogenic peptide substrate was measured before and after addition of the lysis reagent (digitonin). The viable cell contribution was determined by a subtractive method. 0.1% DMSO treated cell were taken as a control.
# as §1
# T1 sequence (E9Q401 whole entry): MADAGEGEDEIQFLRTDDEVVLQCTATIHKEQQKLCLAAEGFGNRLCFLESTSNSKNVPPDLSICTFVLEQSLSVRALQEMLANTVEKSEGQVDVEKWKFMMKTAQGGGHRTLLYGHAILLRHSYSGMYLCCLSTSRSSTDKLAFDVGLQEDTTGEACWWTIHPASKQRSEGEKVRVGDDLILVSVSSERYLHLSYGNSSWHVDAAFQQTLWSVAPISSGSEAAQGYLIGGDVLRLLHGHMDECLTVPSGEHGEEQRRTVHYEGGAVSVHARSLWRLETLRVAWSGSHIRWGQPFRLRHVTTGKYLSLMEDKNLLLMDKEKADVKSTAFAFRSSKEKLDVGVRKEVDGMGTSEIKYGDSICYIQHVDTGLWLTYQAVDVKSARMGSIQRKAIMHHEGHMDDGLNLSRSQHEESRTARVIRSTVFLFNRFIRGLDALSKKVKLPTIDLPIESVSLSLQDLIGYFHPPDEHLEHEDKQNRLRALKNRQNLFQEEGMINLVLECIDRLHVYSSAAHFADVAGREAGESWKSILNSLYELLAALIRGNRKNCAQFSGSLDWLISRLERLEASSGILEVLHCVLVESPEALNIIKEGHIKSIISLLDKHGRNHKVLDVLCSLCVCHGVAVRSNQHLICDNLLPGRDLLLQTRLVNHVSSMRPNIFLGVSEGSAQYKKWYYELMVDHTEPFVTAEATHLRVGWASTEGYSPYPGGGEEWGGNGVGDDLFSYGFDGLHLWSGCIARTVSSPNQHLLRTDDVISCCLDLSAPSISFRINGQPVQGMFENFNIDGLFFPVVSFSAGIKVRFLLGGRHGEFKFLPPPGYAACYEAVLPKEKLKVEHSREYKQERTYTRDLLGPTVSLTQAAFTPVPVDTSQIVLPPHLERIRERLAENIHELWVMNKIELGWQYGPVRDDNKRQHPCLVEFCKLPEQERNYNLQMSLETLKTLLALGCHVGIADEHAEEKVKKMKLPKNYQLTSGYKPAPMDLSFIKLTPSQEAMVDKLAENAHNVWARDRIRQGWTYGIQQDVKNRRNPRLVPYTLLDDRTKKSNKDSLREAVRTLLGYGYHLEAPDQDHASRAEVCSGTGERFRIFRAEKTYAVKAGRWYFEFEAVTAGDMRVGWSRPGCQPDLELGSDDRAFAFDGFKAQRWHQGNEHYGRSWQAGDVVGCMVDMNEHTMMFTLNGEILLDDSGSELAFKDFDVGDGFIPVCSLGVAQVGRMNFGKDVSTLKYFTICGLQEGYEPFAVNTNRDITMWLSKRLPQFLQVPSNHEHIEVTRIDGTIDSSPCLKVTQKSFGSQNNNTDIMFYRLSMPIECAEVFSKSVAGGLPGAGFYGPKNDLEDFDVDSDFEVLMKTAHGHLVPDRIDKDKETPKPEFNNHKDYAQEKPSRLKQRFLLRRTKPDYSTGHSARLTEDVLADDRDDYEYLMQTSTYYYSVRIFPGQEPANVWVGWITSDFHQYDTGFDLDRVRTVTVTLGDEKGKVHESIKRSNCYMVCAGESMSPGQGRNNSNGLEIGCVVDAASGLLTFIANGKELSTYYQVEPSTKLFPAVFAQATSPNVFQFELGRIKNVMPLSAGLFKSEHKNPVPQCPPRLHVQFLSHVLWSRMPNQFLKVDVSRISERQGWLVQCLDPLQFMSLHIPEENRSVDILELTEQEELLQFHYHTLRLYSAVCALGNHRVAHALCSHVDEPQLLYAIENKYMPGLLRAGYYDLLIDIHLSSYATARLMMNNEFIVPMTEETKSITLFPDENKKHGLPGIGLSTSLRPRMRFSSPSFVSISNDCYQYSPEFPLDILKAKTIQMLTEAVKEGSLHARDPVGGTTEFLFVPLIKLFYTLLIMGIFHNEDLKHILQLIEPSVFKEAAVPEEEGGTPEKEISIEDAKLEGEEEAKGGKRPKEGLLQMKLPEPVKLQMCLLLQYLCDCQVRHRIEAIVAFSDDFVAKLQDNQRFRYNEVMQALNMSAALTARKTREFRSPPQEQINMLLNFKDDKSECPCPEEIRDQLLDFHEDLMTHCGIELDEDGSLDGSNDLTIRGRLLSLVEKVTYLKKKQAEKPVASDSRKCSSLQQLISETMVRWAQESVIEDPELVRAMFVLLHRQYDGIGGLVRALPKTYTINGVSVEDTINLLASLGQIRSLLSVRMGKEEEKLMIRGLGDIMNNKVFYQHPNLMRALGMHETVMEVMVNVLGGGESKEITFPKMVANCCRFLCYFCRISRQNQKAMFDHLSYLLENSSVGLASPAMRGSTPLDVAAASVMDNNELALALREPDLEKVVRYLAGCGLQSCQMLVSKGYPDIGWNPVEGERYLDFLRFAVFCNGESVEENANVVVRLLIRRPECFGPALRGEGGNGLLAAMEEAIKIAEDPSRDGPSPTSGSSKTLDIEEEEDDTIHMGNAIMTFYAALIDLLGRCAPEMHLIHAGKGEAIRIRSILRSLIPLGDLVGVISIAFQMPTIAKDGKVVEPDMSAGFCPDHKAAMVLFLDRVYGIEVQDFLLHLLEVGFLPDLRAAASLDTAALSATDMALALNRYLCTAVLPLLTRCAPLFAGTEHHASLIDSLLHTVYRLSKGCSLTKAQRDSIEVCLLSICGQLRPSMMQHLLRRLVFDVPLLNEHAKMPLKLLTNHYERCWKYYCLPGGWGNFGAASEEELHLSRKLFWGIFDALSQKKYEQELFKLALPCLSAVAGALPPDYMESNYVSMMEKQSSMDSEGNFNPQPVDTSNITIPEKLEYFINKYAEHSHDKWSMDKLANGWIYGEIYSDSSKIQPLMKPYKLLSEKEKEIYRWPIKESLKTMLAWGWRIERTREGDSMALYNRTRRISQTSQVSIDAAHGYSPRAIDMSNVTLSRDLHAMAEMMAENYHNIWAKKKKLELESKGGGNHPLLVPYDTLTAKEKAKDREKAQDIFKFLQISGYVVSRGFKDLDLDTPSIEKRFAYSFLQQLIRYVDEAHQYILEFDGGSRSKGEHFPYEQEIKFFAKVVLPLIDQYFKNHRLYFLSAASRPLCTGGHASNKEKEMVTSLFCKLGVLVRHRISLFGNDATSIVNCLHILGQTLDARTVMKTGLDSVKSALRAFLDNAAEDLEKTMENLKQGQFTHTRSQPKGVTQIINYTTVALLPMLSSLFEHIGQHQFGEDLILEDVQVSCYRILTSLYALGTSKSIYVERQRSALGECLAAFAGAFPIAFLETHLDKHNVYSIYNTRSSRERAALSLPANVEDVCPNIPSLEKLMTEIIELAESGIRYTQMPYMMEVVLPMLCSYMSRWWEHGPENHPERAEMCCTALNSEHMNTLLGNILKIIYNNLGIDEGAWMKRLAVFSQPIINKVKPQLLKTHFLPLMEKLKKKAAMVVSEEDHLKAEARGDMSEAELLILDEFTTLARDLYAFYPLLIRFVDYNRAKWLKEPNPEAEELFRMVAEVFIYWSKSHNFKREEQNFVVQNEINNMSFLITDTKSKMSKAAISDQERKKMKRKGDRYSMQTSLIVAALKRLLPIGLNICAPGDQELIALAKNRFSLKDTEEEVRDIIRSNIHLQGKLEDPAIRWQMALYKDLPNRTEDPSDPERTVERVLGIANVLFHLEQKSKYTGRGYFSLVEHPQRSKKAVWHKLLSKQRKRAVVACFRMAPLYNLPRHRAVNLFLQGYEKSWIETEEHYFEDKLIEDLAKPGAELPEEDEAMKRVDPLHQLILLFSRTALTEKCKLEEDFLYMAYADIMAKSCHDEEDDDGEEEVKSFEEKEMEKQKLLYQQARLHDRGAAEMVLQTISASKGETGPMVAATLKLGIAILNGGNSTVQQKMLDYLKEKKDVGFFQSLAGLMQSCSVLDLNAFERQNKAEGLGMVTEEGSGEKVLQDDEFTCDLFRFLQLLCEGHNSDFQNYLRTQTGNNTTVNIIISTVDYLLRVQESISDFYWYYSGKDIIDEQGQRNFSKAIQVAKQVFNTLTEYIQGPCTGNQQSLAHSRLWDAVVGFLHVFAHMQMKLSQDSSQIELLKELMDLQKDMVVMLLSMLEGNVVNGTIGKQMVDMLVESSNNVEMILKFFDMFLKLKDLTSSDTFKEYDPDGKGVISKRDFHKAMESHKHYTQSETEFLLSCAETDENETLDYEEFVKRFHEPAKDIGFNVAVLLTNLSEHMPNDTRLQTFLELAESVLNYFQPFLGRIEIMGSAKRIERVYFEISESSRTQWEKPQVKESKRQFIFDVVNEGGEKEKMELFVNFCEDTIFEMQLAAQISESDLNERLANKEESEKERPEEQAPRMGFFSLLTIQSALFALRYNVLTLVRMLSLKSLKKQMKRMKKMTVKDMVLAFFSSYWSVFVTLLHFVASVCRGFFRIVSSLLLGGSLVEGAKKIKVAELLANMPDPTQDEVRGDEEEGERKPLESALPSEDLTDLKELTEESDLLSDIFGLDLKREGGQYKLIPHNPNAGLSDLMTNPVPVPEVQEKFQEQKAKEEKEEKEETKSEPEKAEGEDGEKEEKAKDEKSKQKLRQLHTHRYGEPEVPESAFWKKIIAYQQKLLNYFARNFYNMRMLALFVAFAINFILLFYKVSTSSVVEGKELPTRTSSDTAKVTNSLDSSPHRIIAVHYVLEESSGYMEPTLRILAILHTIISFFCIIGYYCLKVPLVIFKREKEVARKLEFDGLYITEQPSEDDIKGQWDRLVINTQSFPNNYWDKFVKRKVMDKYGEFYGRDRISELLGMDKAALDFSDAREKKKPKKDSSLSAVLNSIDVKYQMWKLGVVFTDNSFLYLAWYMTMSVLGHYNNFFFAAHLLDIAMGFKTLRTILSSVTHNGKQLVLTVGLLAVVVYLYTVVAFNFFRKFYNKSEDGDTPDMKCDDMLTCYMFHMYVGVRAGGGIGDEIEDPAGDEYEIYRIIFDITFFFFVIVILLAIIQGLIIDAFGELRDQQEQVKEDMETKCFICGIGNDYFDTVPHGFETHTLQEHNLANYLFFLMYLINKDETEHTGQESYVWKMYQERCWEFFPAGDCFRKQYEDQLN
Compound,RyR2 effect class [1],"effect on [Ca^2+]ER (R-CEPIA1er fluorescence), in words [1]",Pe rating in words (low / medium / high; poor) [2],Pe [2],Viability [3] [%],EC50 [1] [nM]
"COc1ccc2c(c1)CN(Cc1ccc(C(=O)O)cc1)CCS2 [ARM210, reference compound]",++,significantly increased [Ca^2+]ER,high,6.8 10^-6 cm/s,90,
"COc1ccc2c(c1)CN(CCCCNCCCCC1(O)CC1)CCS2 [Compound 13a, 1-(4-((4-(7-Methoxy-2,3-dihydrobenzo[1,4-f]-thiazepin-4(5H)-yl)butyl)amino)butyl)cyclopropan-1-ol]",++,,poor permeability and low,0.8 10^-6 cm/s,84,
"COc1ccc(OCCCNCCCCC2(O)CC2)cc1 [Compound 13b, 1-(4-((3-(4-methoxyphenoxy)propyl)amino)butyl)cyclopropan-1-ol]",+++,,high,4.0 10^-6 cm/s,100,81.5
"COc1ccc(SCCCNCCCCC2(O)CC2)cc1 [Compound 13c, 1-(4-((3-((4-Methoxyphenyl)thio)propyl)amino)butyl)cyclopropan-1-ol]",++,,high,6.9 10^-6 cm/s,73,10.2
"COc1ccc2c(c1)CN(CCCCC1(O)CC1)CCS2 [Compound 13d, 1-(4-(7-methoxy-2,3-dihydrobenzo[1,4-f]thiazepin-4(5H)-yl)butyl)cyclopropan-1-ol]",-,no significant RyR2-stabilizing effect,high,3.6 10^-6 cm/s,95,
"COc1ccc2c(c1)CN(CCCCN(CCCCC1(O)CC1)CCCCC1(O)CC1)CCS2 [Compound 14a, 1,1'-(((4-(7-Methoxy-2,3-dihydrobenzo[1,4-f]thiazepin-4(5H)-yl)butyl)azanediyl)bis(butane-4,1-diyl))bis(cyclopropan-1-ol)]",+++,,poor permeability and low,0.6 10^-6 cm/s,80,
"COc1ccc(SCCCN(CCCCC2(O)CC2)CCCCC2(O)CC2)cc1 [Compound 14c, 1,1'-(((3-((4-Methoxyphenyl)thio)propyl)azanediyl)bis(butane-4,1-diyl))bis(cyclopropan-1-ol)]",+,,high,3.6 10^-6 cm/s,90,18.6
"COc1ccc2c(c1)CN(C(=O)C(=O)O)CCS2 [Compound S36, reference compound]",+++,increase in R-CEPIA1er fluorescence,poor permeability and low,1.0 10^-6 cm/s,94,
